Measured values taken from US20060069132A1, “Azolecarboxamide herbicides” (priority 2004, published 2006).

Assays:
[1] = tested on: giant foxtail; assay: Test B pre-/postemergence herbicide test; assay type: in vivo, Setaria faberi; conditions: for Foxtail, Giant plant response rating: postemergence, scale 0 (no effect) to 100 (complete control)
Outline: (§1)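 Pre: seeds sown, then sprayed. Post: 1–4-leaf plants (2–18 cm) sprayed at the same time. Paddy: flooded, treated at 2-leaf stage. Formulation: non-phytotoxic solvent with surfactant. Greenhouse 13–15 days; visual 0–100 score relative to controls.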

[2] = tested on: blackgrass; assay: Test B postemergence herbicide test; assay type: in vivo, Alopecurus myosuroides; conditions: postemergence, visual rating, scale 0 (no effect) to 100 (complete control)
Outline: (§2)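 After treating 2-leaf paddy plants or 2–18 cm postemergence plants (1 to 4 leaves) with formulated chemical, researchers kept them in a greenhouse for 13–15 days. Effects were judged visually versus controls: 0 indicates none, 100 total control.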

[3] = tested on: redroot pigweed; assay: Test A pre-/postemergence herbicide test; assay type: in vivo, Amaranthus retroflexus
Outline: (§3)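 Visual injury scores on a 0–100 scale (100 = complete control) taken about ten days post-treatment in greenhouse against untreated controls; dash means no result. Treatments: preemergence soil spray and postemergence spray to runoff on one- to two-leaf plants 2 to 10 cm tall, surfactant-containing formulation.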

[4] = tested on: ducksalad; assay: Test B flooded paddy test; assay type: in vivo, Heteranthera limosa; conditions: 1000 g ai/ha, visual rating, scale 0 to 100 (0 no effect, 100 complete control), 13 to 15 days
Outline: as §2

[5] = tested on: morningglory; assay: Test A pre-/postemergence herbicide test; assay type: in vivo, Ipomoea spp.
Outline: as §3

[6] = tested on: wheat; assay: Test B postemergence herbicide test; assay type: in vivo, Triticum aestivum; set-up: key to Wheat plant response rating: 0 = no effect, 100 = complete control; conditions: postemergence, visual rating, scale 0 (no effect) to 100 (complete control)
Outline: as §2

[7] = tested on: large crabgrass; assay: Test B pre-/postemergence herbicide test; assay type: in vivo, Digitaria sanguinalis; conditions: for Crabgrass, Large plant response rating: postemergence, scale 0 (no effect) to 100 (complete control)
Outline: as §1

[8] = tested on: rice; assay: Test B pre-/postemergence herbicide test; assay type: in vivo, Oryza sativa; conditions: 0 = no effect, 100 = complete control, preemergence
Outline: as §1

[9] = tested on: lambsquarters; assay: Test B pre-/postemergence herbicide test; assay type: in vivo, Chenopodium album; conditions: for Lambsquarters plant response rating: postemergence, scale 0 (no effect) to 100 (complete control)
Outline: as §1

[10] = tested on: velvetleaf; assay: Test B pre-/postemergence herbicide test; assay type: in vivo, Abutilon theophrasti; conditions: for Velvetleaf plant response rating: postemergence, scale 0 (no effect) to 100 (complete control)
Outline: as §1

[11] = tested on: barnyardgrass; assay: Test A pre-/postemergence herbicide test; assay type: in vivo, Echinochloa crus-galli
Outline: as §3

[12] = tested on: Surinam grass; assay: Test B pre-/postemergence herbicide test; assay type: in vivo, Urochloa decumbens; conditions: for Surinam Grass plant response rating: postemergence, scale 0 (no effect) to 100 (complete control)
Outline: as §1

[13] = tested on: barnyardgrass; assay: Test B flooded paddy test; assay type: in vivo, Echinochloa crus-galli; conditions: 1000 g ai/ha, visual rating, scale 0 to 100 (0 no effect, 100 complete control), 13 to 15 days
Outline: as §2

[14] = tested on: pigweed; assay: Test B pre-/postemergence herbicide test; assay type: in vivo, Amaranthus retroflexus; conditions: for Pigweed plant response rating: postemergence, scale 0 (no effect) to 100 (complete control)
Outline: as §1

[15] = tested on: velvetleaf; assay: Test A pre-/postemergence herbicide test; assay type: in vivo, Abutilon theophrasti
Outline: as §3

[16] = tested on: rice; assay: Test B flooded paddy test; assay type: in vivo, Oryza sativa; conditions: 1000 g ai/ha, visual rating, scale 0 to 100 (0 no effect, 100 complete control), 13 to 15 days
Outline: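 Plants grow to 1- to 4-leaf stage (2–18 cm) for postemergence spraying, or to 2-leaf stage for the paddy test. Formulated compound is applied. Greenhouse holding lasts 13–15 days. Response is scored visually relative to controls, 0 no effect to 100 complete control; a dash means no result.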

[17] = tested on: corn; assay: Test B pre-/postemergence herbicide test; assay type: in vivo, Zea mays; conditions: for Corn plant response rating: postemergence, scale 0 (no effect) to 100 (complete control)
Outline: as §1

[18] = tested on: giant foxtail; assay: Test A pre-/postemergence herbicide test; assay type: in vivo, Setaria faberi
Outline: as §3

[19] = tested on: morningglory; assay: Test B pre-/postemergence herbicide test; assay type: in vivo, Ipomoea coccinea; conditions: for Morningglory plant response rating: postemergence, scale 0 (no effect) to 100 (complete control)
Outline: (§4)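 Flooded paddy rice and barnyardgrass were treated at the 2-leaf stage; upland plantings received compound either on sown seed or on 1- to 4-leaf seedlings. All were kept 13–15 days in a greenhouse and scored visually, 0–100, relative to untreated plants.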

[20] = tested on: large crabgrass; assay: Test A pre-/postemergence herbicide test; assay type: in vivo, Digitaria sanguinalis
Outline: as §3

[21] = tested on: barnyardgrass; assay: Test B pre-/postemergence herbicide test; assay type: in vivo, Echinochloa crus-galli; conditions: for Barnyardgrass plant response rating: postemergence, scale 0 (no effect) to 100 (complete control)
Outline: as §4

[22] = tested on: small flower umbrella sedge; assay: Test B flooded paddy test; assay type: in vivo, Cyperus difformis; conditions: 1000 g ai/ha, visual rating, scale 0 to 100 (0 no effect, 100 complete control), 13 to 15 days
Outline: as §2

[23] = tested on: wild oat; assay: Test B postemergence herbicide test; assay type: in vivo, Avena fatua; conditions: postemergence, visual rating, scale 0 (no effect) to 100 (complete control)
Outline: as §2

[24] = tested on: cocklebur; assay: Test B pre-/postemergence herbicide test; assay type: in vivo, Xanthium strumarium; conditions: for Cocklebur plant response rating: postemergence, scale 0 (no effect) to 100 (complete control)
Outline: as §4

[25] = 125 g ai/ha, 0 = no effect, 100 = complete control, preemergence
[26] = 500 g ai/ha, visual rating, 0 = no effect, 100 = complete control, preemergence
[27] = Postemergence, 500 g ai/ha, 0 to 100 scale, 0 no effect, 100 complete control
[28] = Postemergence, 2000 g ai/ha, 0 to 100 scale, 0 no effect, 100 complete control
[29] = Preemergence, 2000 g ai/ha, visual rating, 0 to 100 scale (0 no effect, 100 complete control)
[30] = preemergence, 500 g ai/ha, visual injury, 0 to 100 scale (0 no effect, 100 complete control)

SMILES: C#CCNC(=O)c1cccc(NC(=O)c2sc(C(C)(C)C)nc2CC)n1 [Compound 217]
- Foxtail, Giant plant response rating (0 to 100 scale) [1, 25]: 0
- Plant response rating, Foxtail, Giant [1, 26]: 0
- Foxtail, Giant plant response rating ([1]; 125 g ai/ha, visual rating): 0
- Foxtail, Giant plant response rating ([1]; 500 g ai/ha, visual rating): 0
- Blackgrass plant response rating ([2]; 125 g ai/ha): 0
- Blackgrass plant response rating ([2]; 500 g ai/ha): 0
- Pigweed plant response rating [3, 27]: 10
- Plant response rating, Pigweed [3, 28]: 25
- Pigweed plant response rating [3, 29]: 40
- Pigweed plant response rating [3, 30]: 0
- Ducksalad plant response rating [4]: 0
- Morningglory plant response rating [5, 27]: 15
- Plant response rating, Morningglory [5, 28]: 25
- Morningglory plant response rating [5, 29]: 0
- Morningglory plant response rating [5, 30]: 0
- Wheat plant response rating ([6]; 125 g ai/ha): 0
- Wheat plant response rating ([6]; 500 g ai/ha): 0
- Crabgrass, Large plant response rating (0 to 100 scale) [7, 25]: 0
- Plant response rating, Crabgrass, Large [7, 26]: 0
- Crabgrass, Large plant response rating ([7]; 125 g ai/ha, visual rating): 0
- Crabgrass, Large plant response rating ([7]; 500 g ai/ha, visual rating): 0
- Rice plant response rating (0 to 100 scale) ([8]; 125 g ai/ha): 0
- Plant response rating, Rice ([8]; 500 g ai/ha, visual rating): 0
- Lambsquarters plant response rating (0 to 100 scale) [9, 25]: 0
- Plant response rating, Lambsquarters [9, 26]: 0
- Lambsquarters plant response rating ([9]; 125 g ai/ha, visual rating): 0
- Lambsquarters plant response rating ([9]; 500 g ai/ha, visual rating): 0
- Velvetleaf plant response rating (0 to 100 scale) [10, 25]: 0
- Plant response rating, Velvetleaf [10, 26]: 0
- Velvetleaf plant response rating ([10]; 125 g ai/ha, visual rating): 0
- Velvetleaf plant response rating ([10]; 500 g ai/ha, visual rating): 10
- Barnyardgrass plant response rating [11, 27]: 0
- Plant response rating, Barnyardgrass [11, 28]: 0
- Barnyardgrass plant response rating [11, 29]: 0
- Barnyardgrass plant response rating [11, 30]: 0
- Surinam Grass plant response rating (0 to 100 scale) [12, 25]: 0
- Plant response rating, Surinam Grass [12, 26]: 0
- Surinam Grass plant response rating ([12]; 125 g ai/ha, visual rating): 0
- Surinam Grass plant response rating ([12]; 500 g ai/ha, visual rating): 10
- Barnyardgrass plant response rating [13]: 0
- Pigweed plant response rating (0 to 100 scale) [14, 25]: 0
- Plant response rating, Pigweed [14, 26]: 0
- Pigweed plant response rating ([14]; 125 g ai/ha, visual rating): 0
- Pigweed plant response rating ([14]; 500 g ai/ha, visual rating): 0
- Velvetleaf plant response rating [15, 27]: 5
- Plant response rating, Velvetleaf [15, 28]: 30
- Velvetleaf plant response rating [15, 29]: 5
- Velvetleaf plant response rating [15, 30]: 0
- Rice plant response rating [16]: 0
- Corn plant response rating (0 to 100 scale) [17, 25]: 0
- Plant response rating, Corn [17, 26]: 0
- Corn plant response rating ([17]; 125 g ai/ha, visual rating): 0
- Corn plant response rating ([17]; 500 g ai/ha, visual rating): 0
- Foxtail, Giant plant response rating [18, 27]: 0
- Plant response rating, Foxtail, Giant [18, 28]: 0
- Foxtail, Giant plant response rating [18, 29]: 10
- Foxtail, Giant plant response rating [18, 30]: 0
- Morningglory plant response rating (0 to 100 scale) [19, 25]: 0
- Plant response rating, Morningglory [19, 26]: 0
- Morningglory plant response rating ([19]; 125 g ai/ha, visual rating): 0
- Morningglory plant response rating ([19]; 500 g ai/ha, visual rating): 10
- Crabgrass, Large plant response rating [20, 27]: 0
- Plant response rating, Crabgrass, Large [20, 28]: 20
- Crabgrass, Large plant response rating [20, 29]: 10
- Crabgrass, Large plant response rating [20, 30]: 0
- Barnyardgrass plant response rating (0 to 100 scale) [21, 25]: 0
- Plant response rating, Barnyardgrass [21, 26]: 0
- Barnyardgrass plant response rating ([21]; 125 g ai/ha, visual rating): 0
- Barnyardgrass plant response rating ([21]; 500 g ai/ha, visual rating): 0
- Sedge, Umbrella plant response rating [22]: 0
- Oat, Wild plant response rating ([23]; 125 g ai/ha): 0
- Oat, Wild plant response rating ([23]; 500 g ai/ha): 0
- Cocklebur plant response rating (0 to 100 scale) [24, 25]: 0
- Plant response rating, Cocklebur [24, 26]: 0
- Cocklebur plant response rating ([24]; 125 g ai/ha, visual rating): 0
- Cocklebur plant response rating ([24]; 500 g ai/ha, visual rating): 0
